# Legend:
# 3T3-L1 adipocytes = assay: Steatosis, HCS LipidTOX imaging in 3T3-L1 adipocytes; format: cell-based, mouse
# Procedure: The 3T3-L1 mouse embryonic fibroblast cell line (ATCC CRL-11605) was cultured according to the standard protocol in Dulbecco’s Modified Eagle Medium (DMEM) supplemented with 10% bovine calf serum, 100 µg/mL streptomycin, and 100 IU/mL penicillin, at 37 °C in a humidified atmosphere containing 5% CO2. Cells were seeded at a density of 10,000 cells/well in collagen type I–coated (10 µg/mL) 96-well plates and allowed to attach for 24 h. Differentiation was initiated by replacing the medium with induction medium composed of DMEM, 0.5 mM 3-isobutyl-1-methylxanthine (IBMX), 1 µM dexamethasone, and 10% fetal bovine serum (FBS). After 48 h (differentiation day 2), the medium was replaced with DMEM supplemented with 10% FBS and 10 µg/mL human recombinant insulin. After an additional 24 h, the medium was replaced with DMEM supplemented with 10% bovine calf serum, 100 µg/mL streptomycin, and 100 IU/mL penicillin. The medium was refreshed every 24 h for 10 consecutive days to allow full differentiation into adipocytes.
# Lipid accumulation and phospholipidosis were evaluated using the HCS LipidTOX Phospholipidosis and Steatosis Detection Kit (Thermo Fisher Scientific). Cells were cultured in black, clear-bottom 96-well plates and treated as described. Next, cells were fixed with 4% paraformaldehyde (15 min), washed with PBS, and stained with LipidTOX Green Neutral Lipid Stain (for steatosis) and LipidTOX Red Phospholipidosis Detection Reagent, prepared according to the manufacturer’s instructions. Nuclei were counterstained with Hoechst 33342 (2 µg/mL). Image acquisition and quantitative analysis were performed using High Content Screening (HCS) technology on the ImageXpress XLS system (Molecular Devices). Lipid droplet and phospholipid content were quantified using automated image analysis pipelines.
# α1-adrenoceptor = assay: Competitive radioligand binding, [3H]prazosin, rat cerebral cortex; conditions: n.a. = no activity at 10–5 M
# Procedure: The competitive radioligand-binding assay assessed affinity for α1- and α2-adrenoceptors. Experiments were carried out in the rat cerebral cortex. […] The membrane preparation and assay technique followed the previously reported protocol. Radioactivity was measured using the MicroBeta2 scintillation counter (PerkinElmer, Kraków, Poland). The data was adjusted to match a single-site curve-fitting formula using Prism 8 (GraphPad Software, La Jolla, CA, USA), and the Ki values were estimated by means of the Cheng–Prusoff formula.
# α2-adrenoceptor = assay: Competitive radioligand binding, [3H]clonidine, rat cerebral cortex; conditions: n.a. = no activity at 10–5 M
# Procedure: The competitive radioligand-binding assay assessed affinity for α1- and α2-adrenoceptors. Experiments were carried out in the rat cerebral cortex. […] The membrane preparation and assay technique followed the previously reported protocol [10]. Radioactivity was measured using the MicroBeta2 scintillation counter (PerkinElmer, Kraków, Poland). The data was adjusted to match a single-site curve-fitting formula using Prism 8 (GraphPad Software, La Jolla, CA, USA), and the Ki values were estimated by means of the Cheng–Prusoff formula.
# HepG2 cells = assay: Glucose consumption (Amplex Red assay) in HepG2 cells; format: cell-based, human
# Procedure: The HepG2 human hepatocellular carcinoma cell line (ATCC® HB-8065™) was cultured in DMEM supplemented with 10% FBS, 100 µg/mL streptomycin, and 100 IU/mL penicillin at 37 °C in 5% CO2. Cells were seeded in 96-well plates at a density of 10,000 cells/well and used for experiments 24 h after plating.
# Stock solutions of test compounds were prepared at a concentration of 10 mM in dimethyl sulfoxide (DMSO). At least 1 mg of each substance was carefully measured and mixed with the right amount of DMSO. A series of dilutions were made in DMSO and then further diluted in phosphate-buffered saline before being introduced into the cell culture medium. Precipitation or opalescence was assessed prior to application.
# The glucose uptake was measured with the Amplex® Red Glucose/Glucose Oxidase Assay Kit from Thermo Fisher Scientific, following the guidelines provided by the maker. Cell culture supernatants were collected and incubated with a reaction mix containing 100 μM Amplex® Red reagent, 0.2 U/mL horseradish peroxidase (HRP), and 1 U/mL glucose oxidase at room temperature for 30 min in the dark. Fluorescence was measured at 530 nm excitation and 590 nm emission using the POLARstar Omega plate reader (BMG Labtech).
# [1] = biological target: T1, 5-HT2C serotoninergic receptor (Homo sapiens, UniProt P28335); assay: 5-HT2C intrinsic activity, agonist mode (AequoScreen calcium mobilization); format: cell-based; conditions: n.a. = no activity at 10–5 M
# T1 sequence (P28335 33-458): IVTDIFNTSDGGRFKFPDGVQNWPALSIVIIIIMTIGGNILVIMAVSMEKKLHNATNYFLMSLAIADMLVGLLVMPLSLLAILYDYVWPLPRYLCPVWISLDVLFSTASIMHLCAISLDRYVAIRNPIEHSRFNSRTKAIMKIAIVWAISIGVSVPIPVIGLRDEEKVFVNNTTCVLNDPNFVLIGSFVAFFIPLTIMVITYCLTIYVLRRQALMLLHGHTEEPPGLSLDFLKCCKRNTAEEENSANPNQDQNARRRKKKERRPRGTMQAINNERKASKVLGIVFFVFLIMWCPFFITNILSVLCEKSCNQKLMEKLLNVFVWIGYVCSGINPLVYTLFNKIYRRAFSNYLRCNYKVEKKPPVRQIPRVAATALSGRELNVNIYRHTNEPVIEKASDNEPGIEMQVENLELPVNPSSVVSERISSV
# Procedure: The determination of intrinsic activity will be performed in accordance with the manufacturer’s Aequoscreen methodology—Perkin Elmer.
# The cell density in the 96-well format was 5000 cells per well. Cell preparation for the assay was performed according to the manufacturer’s instructions for AequoScreen (PerkinElmer, Waltham, MA, USA). […] The cells suspension was applied onto the ligands with the injectors of the POLARstar optima reader (BMG Labtech, Ortenberg, Germany). […] The concentration and dilution series having four replicates were prepared as instructed in the AequoScreen Starter Kit Manual (PerkinElmer, Waltham, MA, USA). The wells received cell injections along with either the standard agonist or the compounds being evaluated, while the POLARstar optima reader documented the emitted light over a duration of 20 s. In the antagonist evaluation, cells were administered (50 μL) into the assay plate alongside antagonist solutions (50 μL).
smiles,measurement,setting,value
"[H]/N=C(\N)NN=Cc1c(Cl)cncc1Cl [JP-14, (E)-2-((3,5-Dichloropyridin-4-yl)Methylene)Hydrazine-1-Carboximidamide]",effect on steatosis under TAAR1 blockade,3T3-L1 adipocytes; 10 µM + RTI-7470-44 (40 nM),abolished
same,steatosis (neutral lipid accumulation),"3T3-L1 adipocytes; 10 µM, vs vehicle",statistically significant decrease
same,α1 Ki,α1-adrenoceptor,did not exhibit notable affinity
same,Ki,α2-adrenoceptor,126 ± 27 nM
same,glucose-stimulating effect under TAAR1 blockade,HepG2 cells; 10 µM + RTI-7470-44 (40 nM),substantially attenuated
same,increase in glucose consumption (uptake),"HepG2 cells; 10 µM, relative to vehicle-treated cells",29%
same,5-HT2C Ago EC50,[1],did not exhibit any measurable agonistic or antagonistic activity

# — publication PMC12563652 (International Journal of Molecular Sciences, 2025)
